{
  "source": "paper PMC11372076",
  "about": "“A dual inhibitor of PIP5K1C and PIKfyve prevents SARS-CoV-2 entry into cells” (Experimental & Molecular Medicine, 2024)",
  "key": {"[1]": {"tested_on": "Omicron variant (BA.1) spike-pseudotyped virus", "type": "cell-based, SARS-CoV-2"}, "[2]": {"tested_on": "Delta variant (B.1.617.2) spike-pseudotyped virus", "type": "cell-based, SARS-CoV-2"}},
  "data": [
    {"smiles": "c1ccc(-c2cc(Nc3nc(-c4ccncc4)nc4ccccc34)n[nH]2)cc1", "note": "[UNI418, N -(5-phenyl-1 H -pyrazol-3-yl)-2-(4-pyridinyl)-4-quinazolinamine]", "values": [
      {"measurement": "pseudotyped virus entry", "setting": "[1]", "result": "markedly inhibited"},
      {"measurement": "pseudotyped virus entry", "setting": "[2]", "result": "markedly inhibited"}
    ]}
  ]
}
